These are literature values, as cited in US9493512B2, “Solution phase processes for the manufacture of macrocyclic depsipeptides and new intermediates” (NOVARTIS AG, priority 2012, dated 2016).

This series addresses chymotrypsin (Bos taurus, UniProt P00766). Particulars: see J. Nat. Prod. 68(9), 1324-7 (2005); read-out: IC50 value, inhibition of chymotrypsin.

pIC50: −log10 of the molar value.

In general, pIC50 refers to the negative decadic logarithm of the IC50, by convention in mol/L. As for `CC(=O)N[C@@H](CCC(N)=O)C(=O)N[C@@H]1C(=O)N[C@@H](CC(C)C)C(=O)N[C@H]2CC[C@@H](O)N(C2=O)[C@@H](Cc2ccccc2)C(=O)N(C)[C@@H](Cc2ccc(O)cc2)C(=O)N[C@@H](C(C)C)C(=O)O[C@@H]1C` [Nostopeptin (BN920)], the negative logarithm of the IC50 (pIC50) is 7.51.
